The nature of data set [1]: Chromatographic testing of blood samples (plasma concentrations). The format is in vivo, Sprague-Dawley male rats. Particulars: blood samples taken after the assessments. The source says: After such assessments, rats were anesthetized with halothane and blood samples were taken for chromatographic testing.
For data set [2] the following is noted: in its acid form; higher than Piroxicam; cited from earlier work.
For data set [3] the following is noted: cited from earlier work.
A further data set deals with rat stomachs. Particulars: cited from earlier work.
For data set [4] the following is noted: cited from earlier work. The source holds these as a separate data set.
The subject of data set [5] is A-carrageenin-induced hyperalgesia. Description: A-carrageenin-induced peripheral inflammatory hyperalgesia in rat paw, paw latency (SLP). The conditions noted are these: for ED50: Rattus norvegicus, po, 2 h, read-out: DE50 value; for peak effect / maximum effect time: time after administration, ipsilateral paw SLP.
Procedure: In this study, an isobolographic analysis was conducted in order to test the interaction between Gabapentin and Meloxicam administered under three different conditions.
Sprague-Dawley male rats were used, with an approximate weight of 200-300 g. […] Rats were used once and they only received one dose of the drugs or the combination thereof.
Rats were placed in a spin cylinder to 4 rpm and one of their paws was connected to a computer terminal. After acclimatization for 1 hour, rats were administered 100 µl of 1% A-carrageenin solution on the plantar surface of one rear paw.
These fixed dosage ratios were selected by a DE50 value range for each drug and reciprocal ratio.
In order to determine the interaction nature, the dosage-derived relationship-response for the total dosage of Gabapentin and Meloxicam, was compared to the theoretical dose relationship-additive by a standard parallel line method.
In data set [6] the test system is α2δ, which are ancillary subunits of voltage-activated calcium channels. Particulars: cited from earlier work.
Another data set concerns other common receptors. Particulars: benzodiazepine, glutamate, NMDA, α1, α2, β-adrenergic, muscarinic, nicotinic, dopaminergic, histaminic, serotoninergic, opiate, canabinoid receptors, voltage-dependent calcium or sodium channels; cited from earlier work.
The conditions of data set [7]: cited from earlier work. This is another data set of the same source.

This is an account of results in patent EP2151237A1, “PHARMACEUTICAL COMPOSITION COMBINING A NON-STEROIDAL ANTI-INFLAMMATORY AGENT AND AN ANTICONVULSANT AGENT” (priority 2007, dated 2008).

With `Cc1cnc(NC(=O)C2=C(O)c3ccccc3S(=O)(=O)N2C)s1` [Meloxicam, 4-hydroxy-2-methyl-N-(5-methyl-2-thiazolyl)-2H benzotiazine-3-carboxamide-1,1-dioxide], in [1], the “effect of additional presence of Meloxicam on plasma concentrations of Gabapentin” value is “does not alter”. In addition, the “membrane solubility relative to Piroxicam” value in data set [2] is 10 fold. For the same molecule, in data set [3], the solubility in water entry is on record as “virtually insoluble”. Also, in the data set on rat stomachs, the gastric ulcerogenicity entry is on record as “minimal gastric ulcerogenicity”. For the same molecule, the concentration in data set [4] (approximately 50 minutes after the administration) was 1600 ng/mL. In addition, the “adherence to plasmatic proteins” value in [4] (in vivo) is given as 99%. Further, the “part of the administered dose eliminated in urine” value in [4] (the rest is excreted in faeces) is “Around a half”. Besides, in [5], the ED50 was 0.46 mg/kg and the “peak effect / maximum effect time” value is 120 min.
For `NCC1(CC(=O)O)CCCCC1` [Gabapentin], the “affinity to α2δ proteins” value in data set [6] is “high affinity”. Besides, the “affinity to other common receptors” value in the data set with other common receptors is on record as “no affinity”. Further, in data set [7] (after the administration), the “time to maximum plasma concentrations” value is ≤ 3 h. For the same molecule, the “binding to plasmatic proteins” value in [7] (plasma) is reported as 3%. Besides, in data set [5], the ED50 came to 19.2 mg/kg and the “peak effect / maximum effect time” value stood at 120 min. Also, the “contralateral paw response latencies” value in data set [5] (non-swollen contralateral rear paw) was “did not show any alteration”.
